In patent publication US12661358B2, “Purine derivatives as drugs for the treatment of neonatal hypoxia-ischemia brain injury and related diseases” (COMMISSARIAT A L'ENERGIE ATOMIQUE ET AUX ENERGIES …, priority 2020, dated 2026):

What was measured:
[1] = test system: primary rat cell-based BBB (blood-brain barrier) model; assay: Permeability of 14C-sucrose on primary rat cell-based BBB model after LPS challenge; details: LPS 10 ng/mL; compound at 0.1 μM and 1 μM; figure axis in 10^−6 cm·s^−1
Method: FIG. 2A: The permeability of radiolabelled sucrose, a permeability marker, was studied on a primary rat cell-based BBB (blood-brain barrier) model after lipopolysaccharide (LPS) challenge.
First graph (left): y-axis: permeability of ^14C-sucrose through the BBB (10^−6 cm·s^−1); x-axis (from left to right): BBB control (negative control); BBB+LPS (10 ng/mL) (positive control); BBB+Compound 13 (0.1 μM); BBB+LPS+Compound 13 (0.1 μM); BBB+Compound 13 (1 μM); BBB+LPS+Compound 13 (1 μM).
Second graph (right): y-axis: permeability of ^14C-sucrose through the BBB (10^−6 cm·s^−1); x-axis (from left to right): BBB control (negative control); BBB+LPS (10 ng/mL) (positive control); BBB+Aftin-5 (0.1 μM); BBB+LPS+Aftin-5 (0.1 μM); BBB+Aftin-5 (1 μM); BBB+LPS+Aftin-5 (1 μM).
The permeability of radiolabelled sucrose (^14C-sucrose), a permeability marker, was studied on a primary rat cell-based BBB (blood-brain barrier) model. Permeability was measured in 10^−6 cm·s^−1. ^14C-sucrose is a small molecular weight marker of 342 Da that tends to reflect paracellular disruption.
To induce increased BBB permeability, lipopolysaccharide (LPS) was injected. LPS induces increased BBB permeability by stimulating formation and release of cytokines and other molecules.
Two different Aftin compounds were tested in this example: […]. […]

[2] = as demonstrated in WO2018/189122; cited from earlier work
[3] = test system: HI (Hypoxia-Ischemia) injury; assay: Rice-Vannucci neonatal HI model, infarct measurement; assay type: in vivo, Wistar rats; details: P7 rats, 30 mg/kg IP immediately after hypoxia, 24 h and 48 h; read 72 h after HI (P10); compared to HI+PL; males and females
Excerpt: Subjects were Wistar rats born from time-mated dams obtain from Charles River Laboratory (Wilmington, […], USA).
Post-natal day 7 (P7) (CNS maturation corresponding to 32-34 weeks of gestation in human) rats were assigned to 3 groups: sham, HI+PL or HI+Compound 13.
In the sham group no hypoxia-ischemia was induced in the rats. This group served as a control group.
In the HI+PL group, where PL stands for placebo, hypoxia-ischemia was induced in the rats. The rats were then further administered a saline vehicle, which served as the placebo.
In the HI+Compound 13 group, hypoxia-ischemia was induced in the rats. The rats were then further administered a dose of Compound 13, which is a compound of formula (I) according to the invention.
The Rice-Vanucci method was used to induce the HI injury (Rice J E et al., 1981) in groups HI+PL and HI+Compound 13.
In summary, each animal from all three groups was anesthetized using 3-4% isoflurane and total absence of leg withdrawal reflexes was verified prior to proceeding to surgery. […]
The infarct was calculated as a percentage of the ratio of the damaged volume to the volume of the total contralateral hemisphere with correction for hemispheric edema, according to the following formula: infarct (%)=[1−(volume of total ipsilateral hemisphere−volume of infarct)/volume of total contralateral hemisphere)]×100%.

| SMILES | permeability of 14C-sucrose through the BBB under inflammatory stress [1] | ability to cross the BBB [2] | infarct area / infarct volume of the hemisphere ipsilateral to HI injury [3] |
| --- | --- | --- | --- |
| CC[C@H](CO)Nc1nc(N(C)c2ccccc2)c2ncn(C(C)C)c2n1 [Aftin-5, (2R)-2-[[9-isopropyl-6-(N-methylanilino)purin-2-yl]amino]butan-1-ol] | statistically restored the permeability properties of the BBB | able to cross the BBB |  |
| CC[C@H](CO)Nc1nc(N(CC)Cc2ccccc2)c2ncn(C(C)C)c2n1 [Compound 13, (2R)-2-[[6-[benzyl(ethyl)amino]-9-isopropyl-purin-2-yl]amino]butan-1-ol] | statistically restored the permeability properties of the BBB |  | statistically reduced |
